Several values for one entry are separate records, joined by “and”; a condition that tells them apart may be missing. Equal entries are not always repeated. Inconclusive results and toxic doses are left out.
System: CD2F1 mice, L1210 leukemia ip, survival T/C
Assay: NCI In Vivo Anticancer Drug Screen. Data for tumor model L1210 Leukemia (intraperitoneal) in CD2F1 (CDF1) mice
Conditions: higher = longer survival
Summary of the method: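 Vehicle-treated tumor-bearing mice served as controls (C) for compound-treated mice (T). Reported figure is T divided by C.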

[1] = endpoint: mean survival time, dose: 12.5 mg/kg/injection, schedule: Q01DX009 (ip), vehicle: saline with Tween-80
[2] = endpoint: mean survival time, dose: 25.0 mg/kg/injection, schedule: Q01DX009 (ip), vehicle: saline with Tween-80
[3] = endpoint: mean survival time, dose: 50.0 mg/kg/injection, schedule: Q01DX009 (ip), vehicle: saline with Tween-80
[4] = endpoint: mean survival time, dose: 100.0 mg/kg/injection, schedule: Q04DX003 (ip), vehicle: saline
[5] = endpoint: mean survival time, dose: 200.0 mg/kg/injection, schedule: Q01DX009 (ip), vehicle: saline
[6] = endpoint: mean survival time, dose: 200.0 mg/kg/injection, schedule: Q04DX003 (ip), vehicle: saline
[7] = endpoint: mean survival time, dose: 400.0 mg/kg/injection, schedule: Q04DX003 (ip), vehicle: saline
[8] = endpoint: mean survival time, dose: 100.0 mg/kg/injection, schedule: Q01DX009 (ip), vehicle: saline with Tween-80
[9] = endpoint: mean survival time, dose: 200.0 mg/kg/injection, schedule: Q01DX009 (ip), vehicle: saline with Tween-80

## [O-]c1cc2c3c(c1)c1cc4c(cc1c[n+]3C=C2)OCO4
endpoint: mean survival time, dose: 3.13 mg/kg/injection, schedule: Q01DX009 (ip), vehicle: other
  T/C: 100 % of control
endpoint: mean survival time, dose: 3.13 mg/kg/injection, schedule: Q01DX009 (ip), vehicle: water
  T/C: 114 % of control
endpoint: mean survival time, dose: 6.25 mg/kg/injection, schedule: Q01DX009 (ip), vehicle: other
  T/C: 109 % of control
endpoint: mean survival time, dose: 6.25 mg/kg/injection, schedule: Q01DX009 (ip), vehicle: water
  T/C: 120 % of control and 122 % of control
endpoint: mean survival time, dose: 12.5 mg/kg/injection, schedule: Q01DX009 (ip), vehicle: other
  T/C: 110 % of control
endpoint: mean survival time, dose: 12.5 mg/kg/injection, schedule: Q01DX009 (ip), vehicle: water
  T/C: 124 % of control
endpoint: mean survival time, dose: 25.0 mg/kg/injection, schedule: Q01DX009 (ip), vehicle: other
  T/C: 118 % of control
endpoint: mean survival time, dose: 25.0 mg/kg/injection, schedule: Q01DX009 (ip), vehicle: water
  T/C: 150 % of control
endpoint: mean survival time, dose: 50.0 mg/kg/injection, schedule: Q01DX009 (ip), vehicle: water
  T/C: 115 % of control
endpoint: mean survival time, dose: 100.0 mg/kg/injection, schedule: Q01DX009 (ip), vehicle: water
  T/C: 124 % of control

## NC(=S)N/N=C\c1cccs1
endpoint: mean survival time, dose: 100.0 mg/kg/injection, schedule: Q04DX003 (ip), vehicle: saline with Tween-80
  T/C: 97 % of control
endpoint: mean survival time, dose: 200.0 mg/kg/injection, schedule: Q04DX003 (ip), vehicle: saline with Tween-80
  T/C: 100 % of control
endpoint: mean survival time, dose: 400.0 mg/kg/injection, schedule: Q04DX003 (ip), vehicle: saline with Tween-80
  T/C: 96 % of control

## CC[C@@]1(O)C(=O)OCc2c1cc1n(c2=O)Cc2cc3c(N)cccc3nc2-1
endpoint: median survival time, dose: 0.25 mg/kg/injection, schedule: Q01DX005 (ip), vehicle: saline with Tween-80
  T/C: 168 % of control
endpoint: median survival time, dose: 0.3 mg/kg/injection, schedule: Q01DX005 (ip), vehicle: saline with Tween-80
  T/C: 150 % of control
endpoint: median survival time, dose: 0.5 mg/kg/injection, schedule: Q01DX005 (ip), vehicle: saline with Tween-80
  T/C: 182 % of control and 223 % of control
endpoint: median survival time, dose: 0.63 mg/kg/injection, schedule: Q04DX002 (ip), vehicle: saline with Tween-80
  T/C: 202 % of control
endpoint: median survival time, dose: 0.84 mg/kg/injection, schedule: Q01DX005 (ip), vehicle: saline with Tween-80
  T/C: 182 % of control
endpoint: median survival time, dose: 1.0 mg/kg/injection, schedule: Q01DX005 (ip), vehicle: saline with Tween-80
  T/C: 108 % of control
endpoint: median survival time, dose: 1.25 mg/kg/injection, schedule: Q04DX002 (ip), vehicle: saline with Tween-80
  T/C: 228 % of control
endpoint: median survival time, dose: 1.39 mg/kg/injection, schedule: Q01DX005 (ip), vehicle: saline with Tween-80
  T/C: 365 % of control
endpoint: median survival time, dose: 2.0 mg/kg/injection, schedule: Q01DX005 (ip), vehicle: saline with Tween-80
  T/C: 87 % of control
endpoint: median survival time, dose: 2.32 mg/kg/injection, schedule: Q01DX005 (ip), vehicle: saline with Tween-80
  T/C: 121 % of control
endpoint: median survival time, dose: 2.5 mg/kg/injection, schedule: Q04DX002 (ip), vehicle: saline with Tween-80
  T/C: 348 % of control and 361 % of control
endpoint: median survival time, dose: 5.0 mg/kg/injection, schedule: Q04DX002 (ip), vehicle: saline with Tween-80
  T/C: 220 % of control and 361 % of control
endpoint: median survival time, dose: 10.0 mg/kg/injection, schedule: Q04DX002 (ip), vehicle: saline with Tween-80
  T/C: 93 % of control

## CCc1ccc(C2=C(O)C(=O)C(c3ccc(CC)cc3)=C(O)C2=O)cc1
endpoint: mean survival time, dose: 1.56 mg/kg/injection, schedule: Q01DX001 (ip), vehicle: Klucel (hydroxypropylcellulose) (HPC)
  T/C: 97 % of control
endpoint: mean survival time, dose: 3.12 mg/kg/injection, schedule: Q01DX009 (ip), vehicle: saline with Tween-80
  T/C: 97 % of control
endpoint: mean survival time, dose: 3.13 mg/kg/injection, schedule: Q01DX001 (ip), vehicle: Klucel (hydroxypropylcellulose) (HPC)
  T/C: 96 % of control
endpoint: mean survival time, dose: 6.25 mg/kg/injection, schedule: Q01DX001 (ip), vehicle: Klucel (hydroxypropylcellulose) (HPC)
  T/C: 96 % of control
endpoint: mean survival time, dose: 6.25 mg/kg/injection, schedule: Q01DX009 (ip), vehicle: saline with Tween-80
  T/C: 89 % of control and 109 % of control
[1]
  T/C: 104 % of control
endpoint: mean survival time, dose: 25.0 mg/kg/injection, schedule: Q01DX001 (ip), vehicle: Klucel (hydroxypropylcellulose) (HPC)
  T/C: 120 % of control
[2]
  T/C: 106 % of control and 111 % of control
[3]
  T/C: 119 % of control

## FC(F)(F)COP1(OCC(F)(F)F)=NP(OCC(F)(F)F)(OCC(F)(F)F)=NP(OCC(F)(F)F)(OCC(F)(F)F)=NP(OCC(F)(F)F)(OCC(F)(F)F)=N1
endpoint: mean survival time, dose: 50.0 mg/kg/injection, schedule: Q01DX009 (ip), vehicle: saline
  T/C: 100 % of control
endpoint: mean survival time, dose: 100.0 mg/kg/injection, schedule: Q01DX009 (ip), vehicle: saline
  T/C: 100 % of control
[4]
  T/C: 97 % of control
[5]
  T/C: 97 % of control
[6]
  T/C: 97 % of control
[7]
  T/C: 105 % of control

## NCc1cccc([N+](=O)[O-])c1
[4]
  T/C: 106 % of control
[6]
  T/C: 109 % of control
[7]
  T/C: 98 % of control

## CN(C)/N=N/c1[nH]cnc1C(N)=O.[Cl][Cu][Cl]
endpoint: mean survival time, dose: 1.56 mg/kg/injection, schedule: Q04DX003 (ip), vehicle: water
  T/C: 97 % of control
endpoint: mean survival time, dose: 2.0 mg/kg/injection, schedule: Q01DX001 (ip), vehicle: distilled water + Tween-80
  T/C: 96 % of control
endpoint: mean survival time, dose: 3.13 mg/kg/injection, schedule: Q04DX003 (ip), vehicle: water
  T/C: 106 % of control
endpoint: mean survival time, dose: 4.0 mg/kg/injection, schedule: Q01DX001 (ip), vehicle: distilled water + Tween-80
  T/C: 94 % of control
endpoint: mean survival time, dose: 6.25 mg/kg/injection, schedule: Q04DX003 (ip), vehicle: water
  T/C: 95 % of control
endpoint: mean survival time, dose: 8.0 mg/kg/injection, schedule: Q01DX001 (ip), vehicle: distilled water + Tween-80
  T/C: 99 % of control
endpoint: mean survival time, dose: 12.5 mg/kg/injection, schedule: Q04DX003 (ip), vehicle: water
  T/C: 94 % of control
endpoint: mean survival time, dose: 16.0 mg/kg/injection, schedule: Q01DX001 (ip), vehicle: distilled water + Tween-80
  T/C: 88 % of control
endpoint: mean survival time, dose: 32.0 mg/kg/injection, schedule: Q01DX001 (ip), vehicle: distilled water + Tween-80
  T/C: 92 % of control

## CC(C)C(=O)C(C)(C)c1nc2ccccc2[nH]1
endpoint: mean survival time, dose: 100.0 mg/kg/injection, schedule: Q04DX002 (ip), vehicle: saline with Tween-80
  T/C: 106 % of control
endpoint: mean survival time, dose: 200.0 mg/kg/injection, schedule: Q04DX002 (ip), vehicle: saline with Tween-80
  T/C: 98 % of control
endpoint: mean survival time, dose: 400.0 mg/kg/injection, schedule: Q04DX002 (ip), vehicle: saline with Tween-80
  T/C: 87 % of control

## CC1=NCCCN=C(C)C([N+](=O)[O-])C=NC(C)(C)CN=CC1[N+](=O)[O-].[Ni] (stereo not given)
endpoint: mean survival time, dose: 12.5 mg/kg/injection, schedule: Q04DX002 (ip), vehicle: saline with Tween-80
  T/C: 97 % of control
endpoint: mean survival time, dose: 25.0 mg/kg/injection, schedule: Q04DX002 (ip), vehicle: saline with Tween-80
  T/C: 97 % of control
endpoint: mean survival time, dose: 50.0 mg/kg/injection, schedule: Q04DX002 (ip), vehicle: saline with Tween-80
  T/C: 93 % of control

## COCc1nnc2nc[nH]c(=O)c2n1
endpoint: mean survival time, dose: 100.0 mg/kg/injection, schedule: Q01DX001 (ip), vehicle: carboxymethylcellulose (CMC)
  T/C: 98 % of control
endpoint: mean survival time, dose: 200.0 mg/kg/injection, schedule: Q01DX001 (ip), vehicle: carboxymethylcellulose (CMC)
  T/C: 101 % of control

## CN(CCO)c1c(Cl)c(=O)oc2ccc(Cl)cc12
[8]
  T/C: 97 % of control
[9]
  T/C: 101 % of control
endpoint: mean survival time, dose: 400.0 mg/kg/injection, schedule: Q01DX009 (ip), vehicle: saline with Tween-80
  T/C: 106 % of control

## N=C(N)SCc1cccc2c(=O)cc(-c3ccccc3)oc12
[2]
  T/C: 95 % of control
[3]
  T/C: 96 % of control
[8]
  T/C: 101 % of control
[9]
  T/C: 104 % of control
endpoint: median survival time, dose: 25.0 mg/kg/injection, schedule: Q01DX009 (ip), vehicle: saline
  T/C: 113 % of control
endpoint: median survival time, dose: 50.0 mg/kg/injection, schedule: Q01DX009 (ip), vehicle: saline
  T/C: 113 % of control
endpoint: median survival time, dose: 100.0 mg/kg/injection, schedule: Q01DX009 (ip), vehicle: saline
  T/C: 114 % of control
endpoint: median survival time, dose: 200.0 mg/kg/injection, schedule: Q01DX009 (ip), vehicle: saline
  T/C: 113 % of control
endpoint: median survival time, dose: 400.0 mg/kg/injection, schedule: Q01DX009 (ip), vehicle: saline
  T/C: 97 % of control

## Cc1ccc2c([N+](=O)[O-])cccc2n1
[2]
  T/C: 93 % of control
[3]
  T/C: 96 % of control
[8]
  T/C: 104 % of control

## CC1(C)N=C(N)N=C(N)N1c1ccc(CCC(=O)Nc2ccc(S(=O)(=O)F)cc2)cc1
[1]
  T/C: 112 % of control
[2]
  T/C: 117 % of control
endpoint: mean survival time, dose: 100.0 mg/kg/injection, schedule: Q01DX001 (ip), vehicle: saline
  T/C: 102 % of control
[8]
  T/C: 115 % of control
endpoint: mean survival time, dose: 200.0 mg/kg/injection, schedule: Q01DX001 (ip), vehicle: saline
  T/C: 111 % of control
[5]
  T/C: 123 % of control
endpoint: mean survival time, dose: 300.0 mg/kg/injection, schedule: Q01DX009 (ip), vehicle: saline
  T/C: 171 % of control
endpoint: mean survival time, dose: 400.0 mg/kg/injection, schedule: Q01DX001 (ip), vehicle: saline
  T/C: 120 % of control
endpoint: mean survival time, dose: 400.0 mg/kg/injection, schedule: Q01DX009 (ip), vehicle: saline
  T/C: 123 % of control

Reference: PubChem BioAssay AID256 (DTP/NCI, 2004)
